Assay [1] deals with T1, Renin (Homo sapiens, UniProt P00797).
T1 sequence (P00797 67-406): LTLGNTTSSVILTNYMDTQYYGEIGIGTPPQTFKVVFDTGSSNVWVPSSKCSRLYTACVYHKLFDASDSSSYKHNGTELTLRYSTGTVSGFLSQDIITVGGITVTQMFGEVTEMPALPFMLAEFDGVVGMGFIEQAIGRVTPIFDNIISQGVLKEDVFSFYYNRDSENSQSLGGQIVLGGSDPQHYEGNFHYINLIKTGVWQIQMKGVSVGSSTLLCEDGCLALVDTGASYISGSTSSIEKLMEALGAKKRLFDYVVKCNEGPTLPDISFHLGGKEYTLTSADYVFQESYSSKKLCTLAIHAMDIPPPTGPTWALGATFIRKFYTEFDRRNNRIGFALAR
Briefly: Renin inhibition in human plasma (IC50). The class given is biochemical. The arrangement: from tissue; host or cells: human plasma. The source says: Following table represents measured IC50 values of the selected compounds for its Renin inhibition in human plasma.

The target of assay [2] is T1, Renin. The assay is described as follows: In-vitro renin inhibition assay (modified Cayman renin inhibitor screening assay, fluorescence). The class given is biochemical. Set-up: purchased Cayman 10006270. The note with it: 37° C., 30 mins; for inhibition at 0.1 µM: read-out: Renin inhibition (percent inhibition of renin activity) at 0.1 μM; for inhibition at 1 µM: read-out: Renin inhibition (percent inhibition of renin activity) at 1 μM. As for the experimental part:
In-Vitro Renin Inhibition Assay
The enzymatic in vitro assay was performed in 96 well polypropylene plate (Nunc), using a modified Renin inhibitor screening assay protocol (Cayman, cat no: 10006270). The reaction system comprised assay buffer containing 50 mM Tris-HCL, pH=8.0 & 100 mM sodium chloride, human recombinant renin (1:20 diluted with fixed activity), synthetic renin substrates (9.5 μM) and different concentrations of renin inhibitors in DMSO in a total reaction system of 100 μl. The entire incubation mixture were incubated at 37° C. for 30 mins and the fluorescence was read in kinetic mode using excitation wavelengths of 335-345 nm and emission wavelengths of 485-510 nm. Enzyme inhibition was determined by percent inhibition of renin activity.

Structures can show the parent of a compound that is named as a salt.

Turning to `Cc1cc(Cl)c(OCCOc2ccc(CC(CN)C(=O)N3CCCc4cc(OC(F)(F)F)ccc43)cc2)c(Cl)c1` (stereo not drawn) [Example 27, 3-Amino-2-{4-[2-(2,6-dichloro-4-methyl-phenoxy)-ethoxy]-benzyl}-1-(6-trifluoromethoxy-3,4-dihydro-2H-quinolin-1-yl)-propan-1-one hydrochloride], on Renin [1], the IC50 was found to be 0.921 nM. Moreover, the inhibition at 0.1 µM at Renin [2] (compound concentration 0.1 μM) turned out to be 100%. Besides, on Renin [2] (compound concentration 1 μM), the inhibition at 1 µM is 99.2%.

Turning to `Cc1cc(Cl)c(OCCOc2ccc(CC(CN)C(=O)N3CCCc4cc(C(F)(F)F)ccc43)cc2)c(Cl)c1.Cl` (stereo not drawn) [Example 15A, 3-Amino-2-{4-[2-(2,6-dichloro-4-methyl-phenoxy)-ethoxy]-benzyl}-1-(6-trifluoromethyl-3,4-dihydro-2H -quinolin-1-yl)-propan-1-one hydrochloride], on Renin [1], the IC50 came out at 7.85 nM. Also, the “Renin inhibition (percent inhibition of renin activity) at 0.1 μM” value at Renin [2] (compound concentration 0.1 μM) is 80.00. In addition, the “Renin inhibition (percent inhibition of renin activity) at 1 μM” value on Renin [2] (compound concentration 1 μM) came out at 88.0.

On Renin [1], `NCC(Cc1ccc(OCCOc2c(Cl)cccc2Cl)cc1)C(=O)N1CCCc2cc(C(F)(F)F)ccc21` (stereo not drawn) [Example 31, 3-Amino-2-{4-[2-(2,6-dichloro-phenoxy)-ethoxy]-benzyl}-1-(6-trifluoromethyl-3,4-dihydro-2H-quinolin-1-yl)-propan-1-one hydrochloride] yielded an IC50 of 28.7 nM. On Renin [2] (compound concentration 0.1 μM), the inhibition at 0.1 µM was 94.1%. Also, the inhibition at 1 µM at Renin [2] (compound concentration 1 μM) came out at 102%.

At Renin [1], `NCC(Cc1ccc(OCCOc2c(Cl)cccc2Cl)cc1)C(=O)N1CCCc2cc(OC(F)(F)F)ccc21` (stereo not drawn) [Example 32, 3-Amino-2-{4-[2-(2,6-dichloro-phenoxy)-ethoxy]-benzyl}-1-(6-trifluoromethoxy-3,4-dihydro-2H-quinolin-1-yl)-propan-1-one hydrochloride] returned an IC50 of 0.829 nM. On Renin [2] (compound concentration 0.1 μM), the inhibition at 0.1 µM was found to be 100%.

As for `COCC1CCCN(C(=O)C(CN)Cc2ccc(OCCOc3c(Cl)cc(C)cc3Cl)cc2)C1` (stereo not drawn) [Example 26, 2-Aminomethyl-3-{4-[2-(2,6-dichloro-4-methyl-phenoxy)-ethoxy]-phenyl}-1-(3-methoxymethyl-piperidin-1-yl)-propan-1-one hydrochloride], the concentration for half-maximal inhibition (IC50) on Renin [1] came to 27.8 nM. Further, on Renin [2] (compound concentration 0.1 μM), the inhibition at 0.1 µM worked out at 92.8%. Further, the inhibition at 1 µM at Renin [2] (compound concentration 1 μM) came to 93.9%.

`Cc1cc(Cl)c(OCCOc2ccc(CC(CN)C(=O)N3CCCc4cc(OCC(F)(F)F)ccc43)cc2)c(Cl)c1` (stereo not drawn) [Example 28, 3-Amino-2-{4-[2-(2,6-dichloro-4-methyl-phenoxy)-ethoxy]-benzyl}-1-[6-(2,2,2-trifluoro-ethoxy)-3,4-dihydro-2H-quinolin-1-yl]-propan-1-one hydrochloride]: the inhibition at 0.1 µM on Renin [2] (compound concentration 0.1 μM) is 73.8%.

For `Cc1cc(Cl)c(OCCOc2ccc(CC(CN)C(=O)N3CCCC3)cc2)c(Cl)c1` (stereo not drawn) [Example 23, 3-Amino-2-{4-[2-(2,6-dichloro-4-methyl-phenoxy)-ethoxy]-benzyl}-1-pyrrolidin-1-yl-propan-1-one], at Renin [2] (compound concentration 0.1 μM), the inhibition at 0.1 µM was 59.5%. Besides, the inhibition at 1 µM on Renin [2] (compound concentration 1 μM) is 81.1%.

Consider `Cc1cc(Cl)c(OCCOc2ccc(CC(CN)C(=O)N3CCCc4cc(C(F)(F)F)ccc43)cc2)c(Cl)c1` (stereo not drawn) [Example 15, 3-Amino-2-{4-[2-(2,6-dichloro-4-methyl-phenoxy)-ethoxy]-benzyl}-1-(6-trifluoromethyl-3,4-dihydro-2H -quinolin-1-yl)-propan-1-one], for which the inhibition at 0.1 µM on Renin [2] (compound concentration 0.1 μM) worked out at 99.2%. For the same molecule, the inhibition at 1 µM on Renin [2] (compound concentration 1 μM) was determined as 98.7%.

Regarding `Cc1cc(Cl)c(OCCOc2ccc(CC(CN)C(=O)N3CCCCC3)cn2)c(Cl)c1` (stereo not drawn) [Example 42, 2-Aminomethyl-3-{6-[2-(2,6-dichloro-4-methyl-phenoxy)-ethoxy]-pyridin-3-yl}-1-piperidin-1-yl-propan-1-one], the inhibition at 0.1 µM on Renin [2] (compound concentration 0.1 μM) was determined as 71%. Moreover, on Renin [2] (compound concentration 1 μM), the inhibition at 1 µM worked out at 82.5%.

As for `Cc1cc(Cl)c(OCCOc2ccc(CC(CN)C(=O)N3CCCc4ccc(C)c(C)c43)cc2)c(Cl)c1` (stereo not drawn) [Example 9, 3-Amino-2-{4-[2-(2,6-dichloro-4-methyl-phenoxy)-ethoxy]-benzyl}-1-(7,8-dimethyl-3,4-dihydro-2H-quinolin-1-yl)-propan-1-one], the inhibition at 0.1 µM on Renin [2] (compound concentration 0.1 μM) is 80.5%. Besides, on Renin [2] (compound concentration 1 μM), the inhibition at 1 µM came to 98.1%.

Take `COC1CCCN(C(=O)C(CN)Cc2ccc(OCCOc3c(Cl)cc(C)cc3Cl)cc2)C1` (stereo not drawn) [Example 30, 2-Aminomethyl-3-{4-[2-(2,6-dichloro-4-methyl-phenoxy)-ethoxy]-phenyl}-1-(3-methoxy-piperidin-1-yl)-propan-1-one hydrochloride]: at Renin [2] (compound concentration 0.1 μM), the inhibition at 0.1 µM worked out at 92.8%. Further, at Renin [2] (compound concentration 1 μM), the inhibition at 1 µM stood at 92.9%.

On to `Cc1cc(Cl)c(OCCOc2ccc(CC(CN)C(=O)N3CCCc4ccccc43)cc2)c(Cl)c1` (stereo not drawn) [Example 2, 3-Amino-2-{4-[2-(2,6-dichloro-4-methyl-phenoxy)-ethoxy]-benzyl}-1-(3,4-dihydro-2H-quinolin-1-yl)-propan-1-one], for which the inhibition at 0.1 µM at Renin [2] (compound concentration 0.1 μM) was determined as 90.5%. In addition, the inhibition at 1 µM on Renin [2] (compound concentration 1 μM) amounted to 97.3%.

Turning to `NCC(Cc1ccc(OCCOc2ccc(Cl)cc2Cl)cc1)C(=O)N1CCCc2cc(C(F)(F)F)ccc21` (stereo not drawn) [Example 38, 3-Amino-2-{4-[2-(2,4-dichloro-phenoxy)-ethoxy]-benzyl}-1-(6-trifluoromethyl-3,4-dihydro-2H-quinolin-1-yl)-propan-1-one hydrochloride chloride], the inhibition at 0.1 µM at Renin [2] (compound concentration 0.1 μM) stood at 35.4%.

Regarding `Cc1cc(Cl)c(OCCOc2ccc(CC(CN)C(=O)N3CCCc4cc(C(F)(F)F)ccc43)cn2)c(Cl)c1` (stereo not drawn) [Example 41, 3-Amino-2-{6-[2-(2,6-dichloro-4-methyl-phenoxy)-ethoxy]-pyridin-3-ylmethyl}-1-(6-trifluoromethyl-3,4-dihydro-2H-quinolin-1-yl)-propan-1-one], the inhibition at 0.1 µM at Renin [2] (compound concentration 0.1 μM) was found to be 80.1%. For the same molecule, the inhibition at 1 µM at Renin [2] (compound concentration 1 μM) is 98.6%.

`Cc1cc(Cl)c(OCCOc2ccc(CC(CN)C(=O)N3CCCCC3)cc2)c(Cl)c1` (stereo not drawn) [Example 12, 3-Amino-2-{4-[2-(2,6-dichloro-4-methyl-phenoxy)-ethoxy]-benzyl}-1-piperidin-1-yl-propan-1-one] gave an IC50 against Renin [1] of 70.2 nM. In addition, at Renin [2] (compound concentration 0.1 μM), the inhibition at 0.1 µM came out at 77%. Moreover, the inhibition at 1 µM on Renin [2] (compound concentration 1 μM) was determined as 90.7%.

In the case of `COCCCOc1ccc2c(c1)CCCN2C(=O)C(CN)Cc1ccc(OCCOc2c(Cl)cc(C)cc2Cl)cc1` (stereo not drawn) [Example 24, 3-Amino-2-{4-[2-(2,6-dichloro-4-methyl-phenoxy)-ethoxy]-benzyl}-1-[6-(3-methoxy-propoxy)-3,4-dihydro-2H-quinolin-1-yl]-propan-1-one], it took 25.4 nM to reach half-maximal inhibition at Renin [1] (IC50). At Renin [2] (compound concentration 0.1 μM), the inhibition at 0.1 µM was found to be 90.7%. In addition, the inhibition at 1 µM on Renin [2] (compound concentration 1 μM) stood at 93.2%.

The values above are taken from patent US20100280024A1, “RENIN INHIBITORS” (priority 2007, published 2010).
